These results are taken from PMC5733478, “A Non-imaging High Throughput Approach to Chemical Library Screening at the Unmodified Adenosine-A3 Receptor in Living Cells” (Frontiers in Pharmacology, 2017).

One test concerns the target T1, human A3AR (Homo sapiens, UniProt P0DMS8).
T1 construct: expressed in transfected cells
T1 sequence (P0DMS8 1-318): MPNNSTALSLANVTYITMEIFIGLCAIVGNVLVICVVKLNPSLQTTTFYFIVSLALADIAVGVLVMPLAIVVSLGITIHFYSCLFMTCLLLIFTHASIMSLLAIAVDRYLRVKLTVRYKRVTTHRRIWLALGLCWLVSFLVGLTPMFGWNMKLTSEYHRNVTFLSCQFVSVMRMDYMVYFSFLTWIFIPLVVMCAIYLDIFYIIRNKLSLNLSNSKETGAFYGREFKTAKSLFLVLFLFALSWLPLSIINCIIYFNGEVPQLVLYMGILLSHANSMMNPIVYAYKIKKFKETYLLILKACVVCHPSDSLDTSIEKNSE
The test is described as follows: LOPAC library primary screen: single concentration (10 μM) inhibition of 25 nM CA200645 binding, PHERAstar FS.
Conditions: not given
With `CNCC(O)c1ccc(O)c(O)c1.Cl` (racemic) [(±)-Epinephrine hydrochloride], the “% 25 nM CA200645 binding” value was determined as 95.7 ± 7.0%.
Turning to `NC1CCN(O)C1=O` (racemic) [(±)-HA-966], the “% 25 nM CA200645 binding” value was 96.6 ± 6.4%.
On to `N[C@H](C(=O)O)c1cc(O)no1` (racemic) [(±)-Ibotenic acid], for which the “% 25 nM CA200645 binding” value came out at 93.1 ± 9.6%.
Still for that read-out and setting: the value for `CC(C)NCC(O)c1ccc(O)c(O)c1.Cl` (racemic) [(±)-Isoproterenol hydrochloride] was 95.3 ± 10.4%; that for `COc1ccc(CCN(C)CCCC(C#N)(c2cc(OC)c(OC)c(OC)c2)C(C)C)cc1OC.Cl` (racemic) [(±)-Methoxyverapamil hydrochloride] was 97.3 ± 10.6%.
Turning to `COCCc1ccc(OCC(O)CNC(C)C)cc1.O=C(O)C(O)C(O)C(=O)O` (racemic) [(±)-Metoprolol (+)-tartrate], the “% 25 nM CA200645 binding” value came to 83.3 ± 9.2%.
`C[C@@H]1O[C@H](C[N+](C)(C)C)C[C@H]1O.[Cl-]` (racemic) [(±)-Muscarine chloride]: the “% 25 nM CA200645 binding” value turned out to be 94.8 ± 15.8%.
As to `O=C(O)C1CCCNC1` (racemic) [(±)-Nipecotic acid], the “% 25 nM CA200645 binding” value amounted to 101.9 ± 5.9%.
As for `NC[C@H](O)c1ccc(O)c(O)c1.O=C(O)C(O)C(O)C(=O)O` (racemic) [(±)-Norepinephrine (+)bitartrate], the “% 25 nM CA200645 binding” value is given as 87.1 ± 8.1%.
For `Cl.NCC(O)c1ccc(O)cc1` (racemic) [(±)-Octopamine hydrochloride], the “% 25 nM CA200645 binding” value came out at 103.0 ± 1.6%.
As to `CCCN1CCOC2c3cc(O)ccc3OCC21.Cl` (racemic) [(±)-PD 128,907 hydrochloride], the “% 25 nM CA200645 binding” value was 103.2 ± 2.1%.
The same measure, in the same setting: the value for `CCCN(CCc1ccccc1)C1CCc2c(O)cccc2C1.Cl` (racemic) [(±)-PPHT hydrochloride] was 101.7 ± 5.1%; that for `CC(C)NCC(O)COc1cccc2ccccc12.Cl` (racemic) [(±)-Propranolol hydrochloride] was 106.0 ± 10.5%.
Same read-out and setting: the value for `Br.C=CCN1CCc2cc(O)c(O)cc2C(c2ccccc2)C1` (racemic) [(±)-SKF 38393, N-allyl-, hydrobromide] was 99.7 ± 11.6%; that for `Cl.Oc1cc2c(cc1O)C(c1ccccc1)CNCC2` (racemic) [(±)-SKF-38393 hydrochloride] was 99.4 ± 9.0%; that for `CC(C)NCC(O)c1ccc(NS(C)(=O)=O)cc1.Cl` (racemic) [(±)-Sotalol hydrochloride] was 93.5 ± 12.0%.
For the molecule `CCN1CCCC1CNC(=O)c1cc(S(N)(=O)=O)ccc1OC` (racemic) [(±)-Sulpiride], the “% 25 nM CA200645 binding” value is on record as 102.1 ± 6.1%.
For `CNCC(O)c1ccc(O)cc1` (racemic) [(±)-Synephrine], the “% 25 nM CA200645 binding” value came to 90.7 ± 28.9%.
`O=C1c2c(O)cc(O)cc2O[C@H](c2ccc(O)c(O)c2)[C@H]1O` (racemic) [(±)-Taxifolin]: the “% 25 nM CA200645 binding” value is 111.1 ± 7.5%.
Still for that read-out and setting: the value for `O=C1CCC(N2C(=O)c3ccccc3C2=O)C(=O)N1` (racemic) [(±)-Thalidomide] was 108.7 ± 11.6%; that for `COc1cc(C(O)C(=O)O)ccc1O` (racemic) [(±)-Vanillylmandelic acid] was 97.4 ± 12.9%.
Consider `Cl.OC1CCCCC1N1CCC(c2ccccc2)CC1` (racemic) [(±)-Vesamicol hydrochloride], for which the “% 25 nM CA200645 binding” value was determined as 112.9 ± 7.4%.
As for `O=C(O)CCCCC1CCSS1` (racemic) [(±)-alpha-Lipoic Acid], the “% 25 nM CA200645 binding” value is on record as 99.7 ± 5.6%.
Same read-out and setting: the value for `O=C(O)[C@H]1CCCN[C@H]1C(=O)O` (racemic) [(±)-cis-Piperidine-2,3-dicarboxylic acid] was 99.4 ± 1.9%.
In the case of `C=CC(N)CCC(=O)O` (racemic) [(±)-gamma-Vinyl GABA], the “% 25 nM CA200645 binding” value came out at 96.9 ± 7.5%.
The same measure, in the same setting: the value for `CCC1(c2ccc(N)cc2)CCC(=O)NC1=O` (racemic) [(±)-p-Aminoglutethimide] was 94.1 ± 8.7%; that for `NC(Cc1ccc(Cl)cc1)C(=O)O` (racemic) [(±)-p-Chlorophenylalanine] was 94.9 ± 9.4%; that for `N[C@@H]1CONC1=O` (racemic) [DL-Cycloserine] was 97.4 ± 8.2%.
Turning to `CCCCCCCCCCCCCCCCCC(=O)OC(CC(=O)O)C[N+](C)(C)C.[Cl-]` (racemic) [DL-Stearoylcarnitine chloride], the “% 25 nM CA200645 binding” value came out at 44.2 ± 6.0%.
With `CC(N)(Cc1ccc(O)cc1)C(=O)O` (racemic) [DL-alpha-Methyl-p-tyrosine], the “% 25 nM CA200645 binding” value is given as 102.4 ± 5.8%.
Turning to `CCCCCCCCCCCCCCC[C@H](O)[C@H](N)CO` (racemic) [DL-erythro-Dihydrosphingosine], the “% 25 nM CA200645 binding” value is reported as 98.5 ± 11.2%.
Regarding `NC(C(=O)O)C(O)C(=O)O` (racemic) [DL-threo-beta-hydroxyaspartic acid], the “% 25 nM CA200645 binding” value was 97.0 ± 9.5%.
The same measure, in the same setting: the value for `CCCCCCCCCCCCCCCC(=O)OC(CC(=O)O)C[N+](C)(C)C.[Cl-]` (racemic) [Palmitoyl-DL-Carnitine chloride] was 82.9 ± 21.8%.
On the same count and under the same terms, the value for `CCN1CCC[C@H]1CNC(=O)c1c(O)c(Cl)cc(Cl)c1OC.O=C(O)C(O)C(O)C(=O)O` (racemic) [S(+)-Raclopride L-tartrate] was 98.6 ± 4.9%; that for `Br.CCCN1CCC2c3cc(O)ccc3CCC21` (racemic) [cis(+/-)-8-OH-PBZI hydrobromide] was 98.1 ± 5.1%; that for `COc1ccc2c(c1OC)C(=O)OC2C1c2cc3c(cc2CCN1C)OCO3` (single isomer, unassigned; (+)) [(+)-Hydrastine] was 95.9 ± 10.1%.
On the same count and under the same terms, the value for `CC12NC(Cc3ccccc31)c1ccccc12.O=C(O)/C=C\C(=O)O` (single isomer, unassigned; (+)) [(+)-MK-801 hydrogen maleate] was 104.8 ± 18.5%.
Consider `CC(C)NCC(O)c1ccc(O)c(O)c1.Cl` (single isomer, unassigned; (-)) [(-)-Isoproterenol hydrochloride], for which the “% 25 nM CA200645 binding” value stood at 98.6 ± 14.4%.
On to `C[N+]1(C)[C@@H]2CC(OC(=O)[C@H](CO)c3ccccc3)C[C@H]1[C@@H]1O[C@@H]12.O=[N+]([O-])[O-]` (single isomer, unassigned; (-)) [(-)-Scopolamine methyl nitrate], for which the “% 25 nM CA200645 binding” value worked out at 89.5 ± 24.4%.
Still for that read-out and setting: the value for `CC(N)C(O)c1ccc(O)c(O)c1` (single isomer, unassigned; (-)) [(-)-alpha-Methylnorepinephrine] was 100.4 ± 6.1%.
Consider `Nc1nc(Cl)nc2c1ncn2[C@@H]1O[C@H](COP(=O)(O)OP(=O)(O)OP(=O)(O)O)C(O)C1O` (stereo in doubt), for which the “% 25 nM CA200645 binding” value is listed as 89.5 ± 23.0%.
For the molecule `N.N.N.Nc1ncnc2c1ncn2C1OC(COP(=O)(O)OP(=O)(O)OP(=O)(O)OP(=O)(O)OC[C@H]2O[C@@H](n3cnc4c(N)ncnc43)C(O)C2O)[C@@H](O)C1O` (stereo in doubt), the “% 25 nM CA200645 binding” value is reported as 101.2 ± 10.2%.
Same read-out and setting: the value for `Nc1ncnc2c1nc(Sc1ccc(Cl)cc1)n2C1OC2COP(=O)(O)OC2C1O` (stereo in doubt) [8-(4-Chlorophenylthio)-cAMP sodium] was 91.8 ± 2.6%.
With `CCCCC1(C2CCCC2)Cc2cc(OCC(=O)O)c(Cl)c(Cl)c2C1=O` (stereo in doubt) [R(+)-Butylindazone], the “% 25 nM CA200645 binding” value came to 91.2 ± 11.8%.
The same measure, in the same setting: the value for `Cn1c(=O)c2[nH]c(-c3ccccc3)nc2n(C)c1=O` [1,3-Dimethyl-8-phenylxanthine] was 91.8 ± 4.8%.
With `CCCn1c(=O)c2c(ncn2C)n(CCC)c1=O` [1,3-Dipropyl-7-methylxanthine], the “% 25 nM CA200645 binding” value worked out at 102.9 ± 21.6%.
Regarding `CCCn1c(=O)c2[nH]c(-c3ccc(S(=O)(=O)O)cc3)nc2n(CCC)c1=O` [1,3-dipropyl-8-p-sulfophenylxanthine, reference compound], the “% 25 nM CA200645 binding” value is listed as 42.3 ± 4.8%, the “% Total CA200645 binding” value turned out to be 42.3 ± 4.8% and the “hit in LOPAC primary screen (inhibited the binding of CA200645 by >40%)” value is listed as “identified”.
As to `OC[C@H]1NC[C@@H](O)[C@@H]1O` [1,4-Dideoxy-1,4-imino-D-arabinitol], the “% 25 nM CA200645 binding” value is 90.0 ± 6.2%.
In the case of `Oc1cccc2c(O)nccc12` [1,5-Isoquinolinediol], the “% 25 nM CA200645 binding” value was 97.2 ± 4.1%.
Regarding `Cn1c(=O)[nH]c2ncn(C)c2c1=O` [1,7-Dimethylxanthine], the “% 25 nM CA200645 binding” value came out at 100.9 ± 19.4%.
`O.c1cnc2c(c1)ccc1cccnc12` [1,10-Phenanthroline monohydrate]: the “% 25 nM CA200645 binding” value amounted to 90.7 ± 13.0%.
Turning to `Oc1ccc(Cn2cc[nH]c2=S)cc1` [1-(4-Hydroxybenzyl)imidazole-2-thiol], the “% 25 nM CA200645 binding” value is listed as 87.3 ± 21.6%.
Still for that read-out and setting: the value for `Nn1nnc2ccccc21` [1-Aminobenzotriazole] was 83.5 ± 18.8%.

The same test, now with this note: % of control wells (1% DMSO and 25 nM CA200645); compounds at 10 µM; […]; mean ± SD, three experiments in duplicate.
As to `CN1CCN(C2Cc3ccccc3Sc3ccc(Cl)cc32)CC1.O=C(O)/C=C\C(=O)O` (racemic) [(±)-Octoclothepin maleate], the “% 25 nM CA200645 binding” value stood at 83.2 ± 25.2%.

The same test, now with this note: % of control wells (1% DMSO and 25 nM CA200645); compounds at 10 µM; whole live cells expressing the A3AR; mean ± SD, three experiments in duplicate.
Turning to `O=C(O)CNC(=O)C(CS)Cc1ccccc1` (racemic) [DL-Thiorphan], the “% 25 nM CA200645 binding” value was found to be 100.0 ± 12.5%.

Still in this test, the particulars now being: compounds tested at 10 µM; % of control wells (1% DMSO and 25 nM CA200645); […]; mean ± SD, three experiments in duplicate.
As to `COc1cc(C(O)CN)ccc1O.Cl` (racemic) [(±)-Normetanephrine hydrochloride], the “% 25 nM CA200645 binding” value worked out at 95.5 ± 24.8%.
